# Reference: patent publication EP2711008A1, “N6,N6-dimethyladenosine for use in treating or preventing primary and metastatic breast cancer” (priority 2012, dated 2014)
# Experiments:
# HL-60 cells = details: prior art (Meisel et al. 1998; Mlejnek et al. 2005); cited from earlier work
# [1] = test system: malignant trophoblastic cell lines; details: prior art (Trewyn et al. 1979); cited from earlier work
# prostate cancer cells = assay: Effect on other cancer cells: prostate; format: cell-based
# [2] = test system: L1210 leukemia cultured cells; details: prior art (Kato et al 1986; Takamura et al 1989); cited from earlier work
# [3] = test system: PNT1A immortalized normal prostate cell line; assay: Tetrazolium dye proliferation (WST-1) assay in PNT1A cells; format: cell-based; details: Homo sapiens, 120 h, compared with 0.1 % DMSO vehicle control group, 5 days incubation, read-out: proliferation inhibitory effect
# Description: (§1) Determination of the ability of compound of formula (I) and combinations between compound of formula (I) and certain therapeutic compounds described herein to inhibit the proliferation of target cells was assayed in vitro against breast tumour cells.
# (§2) MCF-7 cells were purchased from ATCC. PNT1A cells were purchased from ECACC. The cells were grown in a subconfluent condition to maintain a logarithmic growth phase. The cells were dislodged for passage using trypsin-EDTA.
# (§3) The proliferation of the cell lines was evaluated by using the commercial WST-1 proliferation measurement reagent. Cells from exponentially growing cultures were plated on the 96 well plates at the appropriate seeding density in the optimal medium to give logarithmic growth over the course of the assay. […] Following incubation the absorbance at a wavelength of 450 nm was measured from each well using a multilabel counter. The absorbance at wavelength 450 nm correlates linearly to number of viable cells in the well.
# (§4) The means and standard deviations for parallel samples were calculated and plotted as a graph.
# (§5) The antiproliferative activity of compound of formula (I) was evaluated in vitro using tetrazolium dye proliferation assay in different cell lines: MCF-7 (breast cancer cell line, derived from pleura fluid) and PNT1A (normal prostate cell line, SV40 immortalized).
# Ehrlich ascites tumour = details: prior art (Kato et al 1986; Takamura et al 1989); cited from earlier work
# [4] = test system: MCF-7 breast cancer cell line; assay: Tetrazolium dye proliferation (WST-1) assay in MCF-7 cells; format: cell-based; details: 5 days incubation
# Description: as §1, §2, §3, §4, §5
# pancreatic cancer cells = assay: Effect on other cancer cells: pancreatic; format: cell-based
smiles,measurement,setting,value
"CN(C)c1ncnc2c1ncn2[C@@H]1O[C@H](CO)[C@@H](O)[C@H]1O [Compound I, N6,N6-Dimethyladenosine]",apoptosis induction on HL-60 cells,HL-60 cells,apoptotic inductor
same,cytotoxicity to malignant trophoblastic cell lines,[1],cytotoxic
same,effect on prostate cancer cells,prostate cancer cells,no effect was detected
same,antitumour activity in L1210 leukemia cultured cells,[2],inactive
same,inhibition at 1 µM,[3],17.4 ± 5.3%
same,antitumour activity against Ehrlich ascites tumour,Ehrlich ascites tumour,inactive
same,inhibition at 1 µM,"[4]; Homo sapiens, MCF7, 120 h, compared with 0.1 % DMSO vehicle control group, 1 microM, read-out: proliferation inhibitory effect",91.6 ± 2.1%
same,proliferation inhibitory effect compared with Gemcitabine,[4]; relative to Gemcitabine (= 0),62.6±9.4%
same,effect on pancreatic cancer cells,pancreatic cancer cells,no effect was detected
